# Results reported in patent publication US7951824B2, “4-aryl-pyridine-2-carboxyamide derivatives” (Hoffman-La Roche Inc., priority 2006, dated 2011).
# Biological target: T1, human mGlu 5a receptor (Homo sapiens, UniProt P41594)
# T1 construct: expressed in transfected cells; host or cells: EBNA cells (transient transfection), membrane homogenates
# Assay: [3H]MPEP competition binding on membranes of EBNA cells transfected with human mGlu 5a receptor
# Conditions: competition with [3H]MPEP (2 nM), 1 h at 4° C., EBNA cell membranes
# Protocol: The pharmacological activity of the compounds was tested using the following method: For binding experiments, cDNA encoding human mGlu 5a receptor was transiently transfected into EBNA cells using a procedure described by Schlaeger and Christensen [Cytotechnology 15:1-13 (1998)]. Cell membrane homogenates were stored at −80° C. until the day of assay where upon they were thawed and resuspended and polytronised in 15 mM Tris-HCl, 120 mM NaCl, 100 mM KCl, 25 mM CaCl2, 25 mM MgCl2 binding buffer at pH 7.4 to a final assay concentration of 20 μg protein/well.
# Saturation isotherms were determined by addition of twelve [^3H] MPEP concentrations (0.04-100 nM) to these membranes (in a total volume of 200 μd) for 1 h at 4° C. Competition experiments were performed with a fixed concentration of [^3H]MPEP (2 nM) and IC50 values of test compounds evaluated using 11 concentrations (0.3-10,000 nM). Incubations were performed for 1 h at 4° C.
# At the end of the incubation, membranes were filtered onto unifilter (96-well white microplate with bonded GF/C filter preincubated 1 h in 0.1% PEI in wash buffer, Packard Bio-Science, Meriden, Conn.) with a Filtermate 96 harvester (Packard BioScience) and washed 3 times with cold 50 mM Tris-HCl, pH 7.4 buffer. Nonspecific binding was measured in the presence of 10 μM MPEP. The radioactivity on the filter was counted (3 min) on a Packard Top-count microplate scintillation counter with quenching correction after addition of 45 μl of microscint 40 (Canberra Packard S. A., Zürich, Switzerland) and shaking for 20 min.
# For binding experiments the Ki values of the compounds tested are given. The Ki value is defined by the following formula: KiIC50/[1+L/Kd] in which the IC50 values are those concentrations of the compounds tested which cause 50% inhibition of the competing radioligand ([^3H]MPEP). L is the concentration of radioligand used in the binding experiment and the Kd value of the radioligand is empirically determined for each batch of membranes prepared.
# T1 sequence (P41594 21-1180 isoform P41594-2 limits assumed): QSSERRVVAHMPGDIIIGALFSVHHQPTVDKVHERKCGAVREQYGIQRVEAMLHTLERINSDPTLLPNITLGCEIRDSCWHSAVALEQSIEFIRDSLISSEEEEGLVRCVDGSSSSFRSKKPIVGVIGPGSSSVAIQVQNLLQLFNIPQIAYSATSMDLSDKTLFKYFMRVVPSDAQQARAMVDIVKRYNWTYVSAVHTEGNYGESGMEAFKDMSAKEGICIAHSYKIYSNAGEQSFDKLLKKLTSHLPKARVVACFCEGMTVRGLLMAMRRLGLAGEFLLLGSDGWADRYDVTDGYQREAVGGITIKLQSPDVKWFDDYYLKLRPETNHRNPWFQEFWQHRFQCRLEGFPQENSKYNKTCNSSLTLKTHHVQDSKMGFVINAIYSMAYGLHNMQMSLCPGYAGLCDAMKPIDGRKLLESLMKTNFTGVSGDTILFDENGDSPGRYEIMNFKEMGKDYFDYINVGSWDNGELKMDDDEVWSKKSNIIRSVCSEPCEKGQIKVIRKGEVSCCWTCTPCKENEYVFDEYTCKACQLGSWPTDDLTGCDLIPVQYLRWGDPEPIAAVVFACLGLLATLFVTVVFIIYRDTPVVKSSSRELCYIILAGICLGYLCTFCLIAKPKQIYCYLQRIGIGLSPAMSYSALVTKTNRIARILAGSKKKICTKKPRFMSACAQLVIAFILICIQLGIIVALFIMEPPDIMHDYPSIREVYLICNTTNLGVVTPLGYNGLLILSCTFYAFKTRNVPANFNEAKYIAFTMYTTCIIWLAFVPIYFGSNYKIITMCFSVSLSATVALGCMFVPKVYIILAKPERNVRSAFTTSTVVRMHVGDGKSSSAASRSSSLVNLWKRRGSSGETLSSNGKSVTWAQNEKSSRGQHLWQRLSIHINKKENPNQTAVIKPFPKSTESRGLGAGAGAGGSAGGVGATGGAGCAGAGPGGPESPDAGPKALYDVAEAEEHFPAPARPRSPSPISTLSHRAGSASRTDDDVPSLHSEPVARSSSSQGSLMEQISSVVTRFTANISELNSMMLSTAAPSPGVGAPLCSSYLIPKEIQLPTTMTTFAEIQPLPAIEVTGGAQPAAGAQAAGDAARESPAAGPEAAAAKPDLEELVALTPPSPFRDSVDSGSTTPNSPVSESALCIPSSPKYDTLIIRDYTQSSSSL
row,SMILES,Ki
1,"Cc1nc(C(=O)Nc2ccnc(Cl)c2)cc(-c2cc(F)cc(F)c2)n1 [Example 36, 6-(3,5-Difluoro-phenyl)-2-methyl-pyrimidine-4-carboxylic acid (2-chloro-pyridin-4-yl)-amide]",113 nM
2,"Cc1cc(NC(=O)c2cc(-c3cc(F)cc(F)c3)nc(C)n2)ccn1 [Example 37, 6-(3,5-Difluoro-phenyl)-2-methyl-pyrimidine-4-carboxylic acid (2-methyl-pyridin-4-yl)-amide]",90 nM
3,"COc1cncc(-c2cc(C)nc(C(=O)Nc3ccn(C)n3)c2)c1 [Example 50, 5-Methoxy-6′-methyl-[3,4′]bipyridinyl-2′-carboxylic acid (1-methyl-1H-pyrazol-3-yl)-amide]",213 nM
4,"COc1cncc(-c2cc(C)nc(C(=O)Nc3csc(C)n3)c2)c1 [Example 56, 5-Methoxy-6′-methyl-[3,4′]bipyridinyl-2′-carboxylic acid (2-methyl-thiazol-4-yl)-amide]",29 nM
5,"Cc1cc(-c2cc(F)cc(F)c2)cc(C(=O)Nc2ccnc(C)n2)n1 [Example 64, 4-(3,5-Difluorophenyl)-6-methyl-pyridine-2-carboxylic acid (2-methyl-pyrimidin-4-yl)-amide]",8 nM
6,"Cc1cc(-c2cncc(F)c2)cc(C(=O)Nc2ccnc(Cl)c2)n1 [Example 67, 5-Fluoro-6′-methyl-[3,4′]bipyridinyl-2′-carboxylic acid (2-chloro-pyridin-4-yl)-amide]",37 nM
7,"Cc1cc(-c2cc(F)cc(F)c2)cc(C(=O)Nc2ncc(C)s2)n1 [Example 86, 4-(3,5-Difluorophenyl)-6-methyl-pyridine-2-carboxylic acid (5-methyl-thiazol-2-yl)-amide]",929 nM
8,"Cc1cccc(NC(=O)c2cc(-c3cccnc3)cc(C)n2)n1 [Example 87, 6′-Methyl-[3,4′]bipyridinyl-2′-carboxylic acid (6-methyl-pyridin-2-yl)-amide]",20 nM
9,"Cc1cc(-c2cccnc2)cc(C(=O)Nc2cccc(C#N)c2)n1 [Example 95, 6′-Methyl-[3,4′]bipyridinyl-2′-carboxylic acid (3-cyanophenyl)-amide]",411 nM
10,"Cc1cc(-c2cc(C)nn2C)c(C)c(C(=O)Nc2csc(C)n2)n1 [Example 109, 4-(2,5-Dimethyl-2H-pyrazol-3-yl)-3,6-dimethyl-pyridine-2-carboxylic acid (2-methyl-thiazol-4-yl)-amide]",127 nM
11,"Cc1cc(-c2ccc(F)cc2)c(C)c(C(=O)Nc2ccn(C)n2)n1 [Example 118, 4-(4-Fluoro-phenyl)-3,6-dimethyl-pyridine-2-carboxylic acid (1-methyl-1H-pyrazol-3-yl)-amide]",714 nM
12,"Cc1cc(-c2cncc(C(F)(F)F)c2)cc(C(=O)Nc2nc(C)cs2)n1 [Example 131, 6′-Methyl-5-trifluoromethyl-[3,4′]bipyridinyl-2′-carboxylic acid (4-methyl-thiazol-2-yl)-amide]",196 nM
13,"Cc1cc(NC(=O)c2cc(-c3ccnc(C#N)c3)cc(C)n2)ccn1 [Example 142, 2′-Cyano-6-methyl-[4,4′]bipyridinyl-2-carboxylic acid (2-methyl-pyridin-4-yl)-amide]",182 nM
14,"Cc1cc(-c2ccnc(Cl)c2)cc(C(=O)Nc2ccn(C)n2)n1 [Example 153, 2′-Chloro-6-methyl-[4,4′]bipyridinyl-2-carboxylic acid (1-methyl-1H-pyrazol-3-yl)-amide]",59 nM
15,"Cc1cc(-c2cc(F)cc(F)c2)cc(C(=O)Nc2nc(CC#N)cs2)n1 [Example 163, 4-(3,5-Difluorophenyl)-6-methyl-pyridine-2-carboxylic acid (4-cyanomethyl-thiazol-2-yl)-amide]",20 nM
16,"Cc1cc(-c2cc(F)cc(F)c2)cc(C(=O)Nc2nccc(Cl)n2)n1 [Example 167, 4-(3,5-Difluorophenyl)-6-methyl-pyridine-2-carboxylic acid (4-chloro-pyrimidin-2-yl)-amide]",79 nM
17,"Cc1cc(-c2cc(F)cc(F)c2)cc(C(=O)Nc2ccnc(C#N)c2)n1 [Example 169, 4-(3,5-Difluorophenyl)-6-methyl-pyridine-2-carboxylic acid (2-cyano-pyridin-4-yl)-amide]",30 nM
18,"CCOC(=O)Cn1ccc(NC(=O)c2cc(-c3cc(F)cc(F)c3)cc(C)n2)n1 [Example 170, (3-{[4-(3,5-Difluorophenyl)-6-methyl-pyridine-2-carbonyl]-amino}-pyrazol-1-yl)-acetic acid ethyl ester]",576 nM
19,"Cc1cc(-c2cncc(F)c2)cc(C(=O)Nc2ccc(Cl)cn2)n1 [Example 173, 5-Fluoro-6′-methyl-[3,4′]bipyridinyl-2′-carboxylic acid (5-chloro-pyridin-2-yl)-amide]",33 nM
20,"Cc1cc(-c2cncc(F)c2)cc(C(=O)Nc2nc(C(F)F)cs2)n1 [Example 174, 5-Fluoro-6′-methyl-[3,4′]bipyridinyl-2′-carboxylic acid (4-difluoromethyl-thiazol-2-yl)-amide]",39 nM
21,"Cc1cc(-c2cncc(F)c2)cc(C(=O)Nc2cccc(Cl)c2)n1 [Example 177, 5-Fluoro-6′-methyl-[3,4′]bipyridinyl-2′-carboxylic acid (3-chloro-phenyl)-amide]",111 nM
22,"Cc1cc(-c2cncc(F)c2)cc(C(=O)Nc2ccccc2)n1 [Example 180, 5-Fluoro-6′-methyl-[3,4′]bipyridinyl-2′-carboxylic acid phenylamide]",364 nM
23,"Cc1cc(-c2cc(C)nc(C(=O)Nc3nc(C#N)cs3)c2)ccn1 [Example 185, 6,2′-Dimethyl-[4,4′]bipyridinyl-2-carboxylic acid (4-cyano-thiazol-2-yl)-amide]",290 nM
24,"Cc1cc(-c2cc(F)cc(F)c2)nc(C(=O)Nc2nc(C)cs2)n1 [Example 192, 4-(3,5-Difluoro-phenyl)-6-methyl-pyrimidine-2-carboxylic acid (4-methyl-thiazol-2-yl)-amide]",110 nM
25,"Cc1cc(-c2cc(F)cc(F)c2)nc(C(=O)Nc2ccnc(Cl)c2)n1 [Example 194, 4-(3,5-Difluoro-phenyl)-6-methyl-pyrimidine-2-carboxylic acid (2-chloro-pyridin-4-yl)-amide]",221 nM
26,"Cc1cc(-c2cc(F)cc(F)c2)nc(C(=O)Nc2ccn(C)n2)n1 [Example 198, 4-(3,5-Difluoro-phenyl)-6-methyl-pyrimidine-2-carboxylic acid (1-methyl-1H-pyrazol-3-yl)-amide]",181 nM
27,"Cc1cc(-c2cc(F)cc(F)c2)cc(C(=O)Nc2nc(C)c(F)s2)n1 [Example 199, 4-(3,5-Difluoro-phenyl)-6-methyl-pyridine-2-carboxylic acid (5-fluoro-4-methyl-thiazol-2-yl)-amide]",14 nM
28,"Cc1cc(-c2cc(F)cc(F)c2)cc(C(=O)Nc2ncc(F)s2)n1 [Example 200, 4-(3,5-Difluoro-phenyl)-6-methyl-pyridine-2-carboxylic acid (5-fluoro-thiazol-2-yl)-amide]",81 nM
